In patent publication US9493537B2, “Compounds with reduced ring size for use in diagnosing and treating melanoma, including metastatic melanoma and methods related to same” (STC.UNM, priority 2009, dated 2016):
Positions of bridges follow the written chain, without caps; N, C: chain ends. Non-standard residues stand in square brackets, D forms with d. Residues, ends and D or L forms follow the SMILES beside them. No end group written: not given here. *: point of attachment. DOTA = O=C(O)CN1CCN(CC(=O)O)CCN(CC(=O)*)CCN(CC(=O)O)CC1; Nle = CCCC[C@H](N)C(=O)O

What was measured:
[1] = molecular target: T1, MC1 receptor (Mus musculus, UniProt Q01727); assay: In vitro competitive binding assay with ^125I-Tyr^2-NDP-MSH in B16/F1 melanoma cells; parameters: host or cells: B16/F1 murine melanoma cells; species or system murine
T1 sequence (Q01727 whole entry): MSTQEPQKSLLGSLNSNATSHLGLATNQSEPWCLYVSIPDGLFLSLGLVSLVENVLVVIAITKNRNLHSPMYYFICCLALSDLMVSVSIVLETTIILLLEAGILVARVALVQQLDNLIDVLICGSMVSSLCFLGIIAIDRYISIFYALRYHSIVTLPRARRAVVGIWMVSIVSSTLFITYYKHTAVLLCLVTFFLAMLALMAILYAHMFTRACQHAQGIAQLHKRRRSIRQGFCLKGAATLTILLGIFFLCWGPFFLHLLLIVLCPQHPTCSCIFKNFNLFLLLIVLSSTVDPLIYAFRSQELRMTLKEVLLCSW
Method: B16/F1 cells were harvested and seeded into a 24-well cell culture plate (5×10^5 cells/well) and incubated at 37° C. overnight. […] The reaction medium was aspirated after the incubation. The cells were rinsed twice with 0.5 mL of ice-cold pH 7.4, 0.2% BSA/0.01 M phosphate buffered saline (PBS) and lysed in 0.5 mL of 1 N NaOH for 5 minutes. The activities associated with cells were measured in a Wallac 1480 automated gamma counter (PerkinElmer, N.J.). The IC50 value of the peptide was calculated using Prism software (GraphPad Software, La Jolla, Calif.).
B16/F1 cells in 24-well cell culture plates (5×10^5 cells/well) were incubated at room temperature (25° C.) for 2 h with approximately 60,000 cpm of ^125I-Tyr^2-NDP-MSH in the presence of 10^−12 to 10^−5 M of each peptide in 0.3 mL of binding medium {Dulbecco's Modified Eagle's Medium with 25 mM N-(2-hydroxyethyl)-piperazine-N′-(2-ethanesulfonic acid), pH 7.4, 0.2% bovine serum albumin (BSA), 0.3 mM 1,10-phenathroline}. The medium was aspirated after the incubation. […] The activities associated with cells were measured in a Wallac 1480 automated gamma counter (PerkinElmer, Waltham, Mass.). The IC50 value of each peptide was calculated using Prism software (GraphPad Software, La Jolla, Calif.).

[2] = test system: B16/F1 melanoma; assay: Biodistribution in B16/F1 melanoma-bearing C57 mice; format: in vivo; conditions: for tumor uptake blocked by NDP-MSH co-injection: 10 μg (6.07 nmol) NDP-MSH
Method: (§1) All the animal studies were conducted in compliance with Institutional Animal Care and Use Committee approval. The mice were housed five animals per cage in sterile micro-isolator cages in a temperature- and humidity-controlled room with a 12-h light/12-h dark schedule. […] C57 mice were subcutaneously inoculated on the right flank with 1×10^6 B16/F1 cells. The weight of tumors reached approximately 0.2 g 10 days post cell inoculation. […] Groups of 5 mice were sacrificed at 0.5, 2, 4 and 24 h post-injection, and tumors and organs of interest were harvested, weighed and counted. Blood values were taken as 6.5% of the whole-body weight. […] The mice were sacrificed at 2 h post-injection. The tumor and organs of interest were harvested, weighed and counted.
(§2) All animal studies were conducted in compliance with Institutional Animal Care and Use Committee approval. The pharmacokinetics of ^111In-DOTA-GGNle-CycMSHhex and ^111In-DOTA-GENle-CycMSHhex were determined in B16/F1 melanoma-bearing C57 female mice (Harlan, Indianapolis, Ind.). The C57 mice were subcutaneously inoculated with 1×10^6 B16/F1 cells on the right flank for each mouse to generate B16/F1 melanomas. Ten days post inoculation, the tumor weights reached approximately 0.2 g. Each melanoma-bearing mouse was injected with 0.037 MBq of ^111In-DOTA-GGNle-CycMSHhex or ^111In-DOTA-GENle-CycMSHhex via the tail vein. Groups of 5 mice were sacrificed at 0.5, 2, 4 and 24 h post-injection, and tumors and organs of interest were harvested, weighed and counted. Blood values were taken as 6.5% of the whole-body weight. The specificities of the tumor uptake of ^111In-DOTA-GGNle-CycMSHhex and ^111In-DOTA-GENle-CycMSHhex were determined by co-injecting 10 μg (6.07 nmol) of unlabeled NDP-MSH which is a linear α-MSH peptide analogue with picomolar MC1 receptor binding affinity.

[3] = In vitro serum stability in mouse serum; format: in vitro ADME; conditions: 37° C., 24 h
Method: After the incubation, 10 μL of 0.5% EDTA aqueous solution was added into the reaction vial to scavenge potential unbound ^111In^3+ ions. The radiolabeled peptide was purified to single species by Waters RP-HPLC (Milford, Mass.) on a Grace Vydac C-18 reverse phase analytical column (Deerfield, Ill.) using a 20-minute gradient of 18-28% acetonitrile in 20 mM HCl aqueous solution with a flow rate of 1.0 mL/min. Purified peptide sample was purged with N2 gas for 20 minutes to remove the acetonitrile. The pH of final solution was adjusted to 7.4 with 0.1 N NaOH and sterile normal saline for animal studies.
Briefly, 50 μL of ^111InCl3 (37-74 MBq in 0.05 M HCl aqueous solution), 10 μL of 1 mg/mL peptide aqueous solution and 400 μL of 0.5 M NH4OAc (pH 4.5) were added into a reaction vial and incubated at 75° C. for 45 mins. After the incubation, 10 μL of 0.5% EDTA (ethylenediaminetetraacetic acid) aqueous solution was added into the reaction vial to scavenge potential unbound ^111In^3+ ions. The radiolabeled complexes were purified to single species by Waters RP-HPLC (Milford, Mass.) on a Grace Vydac C-18 reverse phase analytical column (Deerfield, Ill.) using the following gradient at a 1 mL/min flowrate. The mobile phase consisted of solvent A (20 mM HCl aqueous solution) and solvent B (100% CH3CN). The gradient was initiated and kept at 82:18 A/B for 3 mins followed by a linear gradient of 82:18 A/B to 72:28 A/B over 20 mins. Then, the gradient was changed from 72:28 A/B to 10:90 A/B over 3 mins followed by an additional 5 mins at 10:90 A/B. Thereafter, the gradient was changed from 10:90 AB to 82:18 AB over 3 mins. Each purified peptide sample was purged with N2 gas for 20 mins to remove the acetonitrile. The pH of the final solution was adjusted to 7.4 with 0.1 N NaOH and sterile saline for animal studies. In vitro serum stability of ^111In-DOTA-GGNle-CycMSHhex and ^111In-DOTA-GENle-CycMSHhex were determined by incubation in mouse serum at 37° C. for 24 h and monitored for degradation by RP-HPLC.

[4] = Biodistribution in B16/F1 melanoma-bearing C57 mice; format: in vivo; conditions: female, C57, mouse, iv, 0.037 MBq, total radioactivity; for tissue to tissue ratio at 4 h: 4 h post-injection
Method: as §1, §2

[5] = Metabolites in urine and melanoma by RP-HPLC; format: in vivo, C57 mice; conditions: 2 h post-injection
Method: The mouse used for the imaging study (2 h post-injection) described above was euthanized and the urine was collected for identifying the metabolites. The urinary sample was centrifuged at 16,000 g for 5 min prior to the HPLC analysis. The radioactive metabolite in the urine was analyzed by injecting aliquots of urine into the HPLC. A 20-minute gradient of 18-28% acetonitrile/20 mM HCl was used for the urine analysis.
Both melanoma and urine were collected from the mouse used for SPECT/CT imaging to analyze the metabolites of ^111In-DOTA-GGNle-CycMSHhex in melanoma and urine. The tumor was homogenized by a VWR homogenizer for 5 mins. Equal volume of ethanol was added into the tumor sample. The tumor sample was vortexed and then centrifuged at 16,000 g for 5 mins. The supernatant was transferred into a glass test tube and purged with N2 gas for 20 mins to remove the ethanol. Aliquots of the supernatant were injected into HPLC. The urinary sample was directly centrifuged at 16,000 g for 5 mins prior to the HPLC analysis. Thereafter, aliquots of the urine were injected into HPLC. The HPLC gradient described above was used for the analyses of metabolites.

[6] = molecular target: MC1 receptor (Homo sapiens, UniProt Q01726); conditions: references 25, 26; cited from earlier work
MC1 receptor (Homo sapiens, UniProt Q01726), sequence (Q01726 whole entry): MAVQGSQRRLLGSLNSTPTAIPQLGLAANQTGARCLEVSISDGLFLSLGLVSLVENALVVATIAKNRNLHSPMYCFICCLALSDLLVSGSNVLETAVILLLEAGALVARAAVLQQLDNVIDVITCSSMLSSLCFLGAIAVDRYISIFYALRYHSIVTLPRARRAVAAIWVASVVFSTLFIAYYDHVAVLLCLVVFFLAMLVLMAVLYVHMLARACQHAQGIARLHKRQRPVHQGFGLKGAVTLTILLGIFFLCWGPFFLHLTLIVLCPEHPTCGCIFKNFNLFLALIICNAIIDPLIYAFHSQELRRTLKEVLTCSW

[7] = molecular target: T1, MC1 receptor; conditions: cited from earlier work
[8] = test system: B16/F1 melanoma; conditions: mouse, in vivo; cited from earlier work
[9] = test system: B16/F1 melanoma; conditions: references 19, 20; cited from earlier work

For `CCCC[C@H](NC(=O)CN1CCN(CC(=O)O)CCN(CC(=O)O)CCN(CC(=O)O)CC1)C(=O)NCC(=O)N[C@@H](CCC(=O)O)C(=O)N[C@H]1CC(=O)NCCCC[C@@H](C(N)=O)NC(=O)[C@H](Cc2c[nH]c3ccccc23)NC(=O)[C@H](CCCNC(=N)N)NC(=O)[C@@H](Cc2ccccc2)NC(=O)[C@H](Cc2c[nH]cn2)NC1=O` [DOTA-NleGE-CycMSHhex] ({DOTA}-[Nle]GEDH[dF]RWK-NH2; lactam 4-9), which “lower receptor binding affinity than DOTA-GGNle-CycMSHhex and DOTA-GENle-CycMSHhex” value [1] is on record?
Its value is “at least 78 fold”.

Which “tumor uptake blocked by NDP-MSH co-injection” value ([2]; 2 h post-injection) does the source give for `CCCC[C@H](NC(=O)[C@H](CCC(=O)O)NC(=O)CNC(=O)CN1CCN(CC(=O)O)CCN(CC(=O)O)CCN(CC(=O)O)CC1)C(=O)N[C@H]1CC(=O)NCCCC[C@@H](C(N)=O)NC(=O)[C@H](Cc2c[nH]c3ccccc23)NC(=O)[C@H](CCCNC(=N)N)NC(=O)[C@@H](Cc2ccccc2)NC(=O)[C@H](Cc2c[nH]cn2)NC1=O` [^111In-DOTA-GENle-CycMSHhex, metal not drawn] ({DOTA}-GE[Nle]DH[dF]RWK-NH2; lactam 4-9) here?
Its value is 95.6%.

And the Kidneys uptake ([2]; 0.5 h post-injection)?
The Kidneys uptake was 9.06±2.20 % ID/g.

And the Tumor/Skin uptake ratio ([2]; 0.5 h post-injection)?
The Tumor/Skin uptake ratio was 7.21.

And the Kidneys uptake ([2]; 2 h post-injection)?
The Kidneys uptake was 5.54±0.63 % ID/g.

And the Tumor/Skin uptake ratio ([2]; 2 h post-injection)?
The Tumor/Skin uptake ratio was 24.30.

And the Tumor/Skin uptake ratio ([2]; 4 h post-injection)?
Its Tumor/Skin uptake ratio is 44.17.

What about the Tumor/Skin uptake ratio ([2]; 24 h post-injection) of the same compound?
Its Tumor/Skin uptake ratio is 27.50.

What about the “serum stability by RP-HPLC” value [3] of the same compound?
Its value is “stable”.

For `CCCC[C@H](NC(=O)CNC(=O)CNC(=O)CN1CCN(CC(=O)O)CCN(CC(=O)O)CCN(CC(=O)O)CC1)C(=O)N[C@H]1CC(=O)NCCCC[C@@H](C(N)=O)NC(=O)[C@H](Cc2c[nH]c3ccccc23)NC(=O)[C@H](CCCNC(=N)N)NC(=O)[C@@H](Cc2ccccc2)NC(=O)[C@H](Cc2c[nH]cn2)NC1=O` [^111In-DOTA-GGNle-CycMSHhex, metal not drawn] ({DOTA}-GG[Nle]DH[dF]RWK-NH2; lactam 4-9), which tissue uptake at 2 h ([4]; liver, 2 h post-injection, read-out: Liver uptake) is on record?
The tissue uptake at 2 h was < 0.61 %ID/g.

What about the tissue to tissue ratio at 4 h ([4]; tumor and kidney, tumor/kidney uptake ratio, times that of ^111In-DOTA-Nle-CycMSHhex) of the same compound?
The tissue to tissue ratio at 4 h was 1.61.

What about the tissue to tissue ratio at 2 h ([4]; tumor and kidneys, tumor/kidney uptake ratio, times that of ^111In-DOTA-Nle-CycMSHhex, 2 h post-injection) of the same compound?
The tissue to tissue ratio at 2 h was 1.37.

What about the tissue to tissue ratio at 4 h ([4]; tumor and liver, tumor/liver uptake ratio, times that of ^111In-DOTA-Nle-CycMSHhex) of the same compound?
Its tissue to tissue ratio at 4 h is 3.13.

What about the “tumor uptake blocked by NDP-MSH co-injection” value ([2]; 2 h post-injection) of the same compound?
Its value is “Approximately 98%”.

And the Kidneys uptake ([2]; 0.5 h post-injection)?
The Kidneys uptake was 15.19±2.75 % ID/g.

And the Tumor uptake ([2]; 0.5 h post-injection)?
Its Tumor uptake is 18.39±2.22 % ID/g.

What about the Tumor/Skin uptake ratio ([2]; 0.5 h post-injection) of the same compound?
The Tumor/Skin uptake ratio was 8.51.

And the “tumor uptake, times that of ^111In-DOTA-GENle-CycMSHhex” value (from here on “tumor uptake, times that”) ([2]; 0.5 h post-injection)?
The value was 2 times.

What about the Kidneys uptake ([2]; 2 h post-injection) of the same compound?
Its Kidneys uptake is 6.84±0.92 % ID/g.

And the Tumor uptake ([2]; 2 h post-injection)?
Its Tumor uptake is 19.05±5.04 % ID/g.

And the Tumor/Skin uptake ratio ([2]; 2 h post-injection)?
Its Tumor/Skin uptake ratio is 70.56.

And the “tumor uptake, times that” value ([2]; 2 h post-injection)?
Its value is 2.5 times.

And the Tumor uptake ([2]; 4 h post-injection)?
The Tumor uptake was 18.6±3.56 % ID/g.

And the Tumor/Liver uptake ratio ([2]; 4 h post-injection)?
Its Tumor/Liver uptake ratio is 31.0.

And the Tumor/Skin uptake ratio ([2]; 4 h post-injection)?
Its Tumor/Skin uptake ratio is 68.89.

What about the “tumor uptake, times that” value ([2]; 4 h post-injection) of the same compound?
Its value is 3 times.

What about the Tumor uptake ([2]; 24 h post-injection) of the same compound?
The Tumor uptake was 6.77±0.84 % ID/g.

What about the Tumor/Skin uptake ratio ([2]; 24 h post-injection) of the same compound?
Its Tumor/Skin uptake ratio is 26.04.

And the “melanoma metabolites by HPLC” value ([5]; tumor)?
Its value is “remained intact”.

What about the “urinary metabolites by HPLC” value ([5]; urine) of the same compound?
Its value is “remained intact”.

What about the “serum stability by RP-HPLC” value [3] of the same compound?
The value was “stable”.

Which results are given for “Ac-Nle-c[Asp-His-DPhe-Arg-Trp-Lys(CONH2)] [MT-II]”?
MC1 receptor binding affinity compared with the native α-MSH peptide [6]: higher; MC1 receptor dissociation rate compared with the native α-MSH peptide [6]: slower

For [Nle^4, D-Phe^7]-α-MSH [NDP-MSH], which “affinity for the MC1 receptor” value [7] is on record?
The value was “picomolar”.

For “{DOTA}-GEK[Nle]EH[dF]RWGRPVD (lactam 3-14) [^111In-DOTA-GlyGlu-CycMSH, reference compound]”, which “tumor radioactivity at 2 h remaining in tumors at 24 h” value [8] is on record?
Its value is 22.8%.

And the “visualization of flank primary and pulmonary metastatic melanoma lesions by SPECT/CT” value [9]?
Its value is “clearly visualized”.
